Starred links: 1 amine or outer side, 2 acyl side, 3 side chain; linkers in the order of their positions; H or OH if unused. Non-standard residues stand in square brackets, D forms with d. Residues, ends and D or L forms follow the SMILES beside them. *: point of attachment. X1 = CC(C)CCC[C@@H](C)[C@H]1CC[C@H]2[C@@H]3CC=C4C[C@@H](OC(=O)C*)CC[C@]4(C)[C@H]3CC[C@]12C; X2 = CCN1C(=O)CC(SC[C@H](NC(C)=O)C(=O)NCCCOCCOCCOCCCN*)C1=O; Succinimide(1-Et,3-yl) = CCN1C(=O)CC(*)C1=O; Palmitoyl = CCCCCCCCCCCCCCCC(=O)*; Suc = O=C(CCC(=O)[*:2])[*:1]
What was measured:
Assay type in all cases: cell-based
Conditions in all cases: for EC50: FLIPR
rat NMUR2 = rat NMUR2 (Rattus norvegicus, UniProt Q9ESQ4); test: FLIPR calcium mobilization assay, rat NMUR2; design: expressed in transfected cells; host or cells: FLP-In CHO or HEK-293 FLP-In cells (pcDNA5)
rat NMUR2, sequence (Q9ESQ4 whole entry): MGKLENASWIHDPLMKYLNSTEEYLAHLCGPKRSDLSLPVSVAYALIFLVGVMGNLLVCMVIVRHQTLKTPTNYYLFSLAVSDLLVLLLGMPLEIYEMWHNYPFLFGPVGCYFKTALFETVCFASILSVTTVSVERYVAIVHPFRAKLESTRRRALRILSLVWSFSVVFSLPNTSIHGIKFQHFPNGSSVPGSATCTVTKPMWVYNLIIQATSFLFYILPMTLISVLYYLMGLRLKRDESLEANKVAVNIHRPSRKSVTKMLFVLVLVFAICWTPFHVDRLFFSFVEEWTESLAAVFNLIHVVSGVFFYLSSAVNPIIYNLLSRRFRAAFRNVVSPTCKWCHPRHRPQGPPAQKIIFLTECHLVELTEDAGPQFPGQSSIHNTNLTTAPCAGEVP
Description: (§1) Human, mouse or rat cDNAs encoding NMUR1 or NMUR2 (as described in Howard et al. Nature 406: 70-74 (2000) were subcloned in pcDNA5 (Invitrogen) and transfected into FLP-In CHO cells and HEK-293 FLP-In cells purchased from Invitrogen (Carlsbad, Calif.) using lipofectamine (Invitrogen). The Flp-In system allows integration and expression of a particular gene of interest at a specific genomic location utilizing the Flp recombinase from yeast. The transfected cells were selected by growth in medium containing 200 μg/mL hygromycin (Invitrogen). Populations were frozen at early passage numbers, and these stocks were used for further studies. Stable clones that expressed the mRNAs were identified functionally by FLIPR as well as by RT-PCR. […] Two different rodent NMUR1 cell lines were thus generated: one with the codon as predicted from the genomic databases and another cell line with an engineered methionine (ATG) as the start codon. Additionally, stable cell lines expressing the human receptors were generated in HEK-293/aeq17 cells which stably express the aequorin gene under the CMV promoter. The human NMUR2 cDNA was cloned into pcDNA3.1 and human NMUR1 was subcloned into pIRES-puro (Clontech, Mountain View, Calif.), after transfection cells were selected in media containing G418 and either hygromycin (NMUR2) or puromycin (NMUR1).
(§2) The NMU receptors signal primarily through Gαq/11 proteins; therefore calcium mobilization assays can be utilized for functional activity.
(§3) Stable cell lines expressing human and or rodent NMUR1 or human NMUR2 receptors were plated at a density of 12,000 cells per well overnight on poly-lysine coated 384-well black-walled plates. The following day, the media was removed from the plates and the cells were subsequently loaded with Fluo-3 (Molecular Probes), a calcium sensitive dye, diluted in FLIPR buffer (1× Hank's buffered saline containing 20 mM HEPES, 0.1% BSA, 2.5 mM probenecid (Sigma) and 1.6 mM TR40). All reagents are from Invitrogen unless otherwise noted. Peptide stocks were resuspended in DMSO at a stock concentration of 2 mM and diluted in FLIPR buffer on the day of the experiment to a 4 μM working stock solution.
(§4) After a 90 minute incubation at room-temperature, cell plates were loaded onto a FLIPR (Molecular Devices) to monitor cellular fluorescence (excitation=488 nm; emission=540 nm) before and after compound/peptide addition. Eight to twelve point dose responses were tested on NMUR-expressing cell lines using FLIPR with 1 μM peptide as the highest dose. The response after peptide addition was taken as the maximum fluorescence units minus the fluorescence immediately prior to stimulation for each well. EC50 values were calculated using GraphPad Prism (San Diego, Calif.) software.
(§5) In vitro responses of Neuromedin U receptor agonists (NMU1 to NMU25) in the FLIPR assay for human (Table 3), mouse (Table 4) and rat (Table 5) NMUR1 and NMUR2. EC50s are reported in nM values. Percent activity refers to the maximum response at 1 μM compared to the hNMU-25 response at the same concentration. NT=not tested.

hNMUR2 = hNMUR2 (Homo sapiens, UniProt Q9GZQ4); test: FLIPR calcium mobilization assay, human NMUR2; design: expressed in transfected cells; host or cells: FLP-In CHO or HEK-293 FLP-In cells (pcDNA5); HEK-293/aeq17 lines (pcDNA3.1) were also made
hNMUR2, sequence (Q9GZQ4 whole entry): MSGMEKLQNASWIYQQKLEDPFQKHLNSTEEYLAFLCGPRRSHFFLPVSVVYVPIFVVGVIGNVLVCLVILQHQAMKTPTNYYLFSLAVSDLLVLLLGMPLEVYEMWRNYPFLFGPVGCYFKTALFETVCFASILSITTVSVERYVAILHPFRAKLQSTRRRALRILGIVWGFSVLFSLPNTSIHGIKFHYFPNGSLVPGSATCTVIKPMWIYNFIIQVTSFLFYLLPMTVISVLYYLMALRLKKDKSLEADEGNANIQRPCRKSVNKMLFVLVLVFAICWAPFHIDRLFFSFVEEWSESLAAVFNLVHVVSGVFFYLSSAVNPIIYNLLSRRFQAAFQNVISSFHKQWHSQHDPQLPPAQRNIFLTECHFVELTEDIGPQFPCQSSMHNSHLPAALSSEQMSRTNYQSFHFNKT

rat NMUR1-ATG = biological target: T1, rat NMUR1-ATG (Rattus norvegicus, UniProt Q9JJI5); test: FLIPR calcium mobilization assay, rat NMUR1-ATG; design: expressed in transfected cells; host or cells: FLP-In CHO or HEK-293 FLP-In cells (pcDNA5)
T1 sequence (Q9JJI5 1-425): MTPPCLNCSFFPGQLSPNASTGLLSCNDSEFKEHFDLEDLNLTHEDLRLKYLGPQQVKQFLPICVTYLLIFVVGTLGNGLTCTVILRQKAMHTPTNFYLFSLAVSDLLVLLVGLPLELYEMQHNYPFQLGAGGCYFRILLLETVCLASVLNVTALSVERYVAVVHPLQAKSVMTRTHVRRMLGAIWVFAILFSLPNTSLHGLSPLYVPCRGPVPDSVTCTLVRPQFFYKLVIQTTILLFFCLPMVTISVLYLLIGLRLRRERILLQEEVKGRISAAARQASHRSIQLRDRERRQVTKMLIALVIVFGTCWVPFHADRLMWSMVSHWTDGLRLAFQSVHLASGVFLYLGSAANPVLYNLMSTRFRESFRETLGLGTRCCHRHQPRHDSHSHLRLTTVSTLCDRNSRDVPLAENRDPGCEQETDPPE
Description: as §1, §2, §3, §4, §5

mouse NMUR2 = mouse NMUR2 (Mus musculus, UniProt Q8BZ39); test: FLIPR calcium mobilization assay, mouse NMUR2; design: expressed in transfected cells; host or cells: FLP-In CHO or HEK-293 FLP-In cells (pcDNA5)
mouse NMUR2, sequence (Q8BZ39 whole entry): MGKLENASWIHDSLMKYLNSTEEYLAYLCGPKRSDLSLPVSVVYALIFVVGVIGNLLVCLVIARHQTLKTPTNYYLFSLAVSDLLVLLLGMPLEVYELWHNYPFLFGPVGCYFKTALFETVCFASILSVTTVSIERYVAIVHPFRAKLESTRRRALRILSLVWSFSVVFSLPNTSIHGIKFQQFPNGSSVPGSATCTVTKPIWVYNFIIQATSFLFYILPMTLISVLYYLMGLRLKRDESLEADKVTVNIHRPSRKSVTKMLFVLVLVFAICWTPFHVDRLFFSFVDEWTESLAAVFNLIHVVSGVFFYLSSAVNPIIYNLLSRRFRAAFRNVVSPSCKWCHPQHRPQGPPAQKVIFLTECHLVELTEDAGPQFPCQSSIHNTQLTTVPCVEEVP
Description: as §1, §2, §3, §4, §5

hNMUR1 = biological target: T2, hNMUR1 (Homo sapiens, UniProt Q9HB89); test: FLIPR calcium mobilization assay, human NMUR1; design: expressed in transfected cells; host or cells: FLP-In CHO or HEK-293 FLP-In cells (pcDNA5); HEK-293/aeq17 lines (pIRES-puro) were also made
T2 sequence (Q9HB89 1-426): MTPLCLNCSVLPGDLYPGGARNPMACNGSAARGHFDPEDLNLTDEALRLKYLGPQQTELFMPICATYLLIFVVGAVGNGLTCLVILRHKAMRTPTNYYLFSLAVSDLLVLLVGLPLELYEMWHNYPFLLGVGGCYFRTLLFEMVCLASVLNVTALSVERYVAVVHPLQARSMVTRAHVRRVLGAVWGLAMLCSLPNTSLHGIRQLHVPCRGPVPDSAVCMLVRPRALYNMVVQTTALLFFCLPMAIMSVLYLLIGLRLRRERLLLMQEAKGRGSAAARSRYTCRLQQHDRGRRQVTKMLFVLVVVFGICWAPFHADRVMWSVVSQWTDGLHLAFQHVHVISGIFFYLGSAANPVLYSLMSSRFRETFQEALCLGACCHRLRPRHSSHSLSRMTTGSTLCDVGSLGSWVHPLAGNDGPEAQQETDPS

[1] = maximum response at 1 μM compared to hNMU-25, rat NMUR2
[2] = maximum response at 1 μM compared to hNMU-25, human NMUR2
[3] = maximum response at 1 μM compared to hNMU-25, rat NMUR1-ATG
[4] = maximum response at 1 μM compared to hNMU-25, mouse NMUR2
[5] = maximum response at 1 μM compared to hNMU-25 response at same concentration, human NMUR1

Compound | EC50 (rat NMUR2; rat NMUR2) [µM] | % Activity (rat NMUR2; [1]) [%] | % Activity (hNMUR2; [2]) [%] | % Activity (rat NMUR1-ATG; [3]) [%] | % Activity (mouse NMUR2; [4]) [%] | % Activity (hNMUR1; [5]) [%] | EC50 (hNMUR2; human NMUR2) [µM] | EC50 (rat NMUR1-ATG; rat NMUR1-ATG) [µM] | EC50 (mouse NMUR2; mouse NMUR2) [µM] | EC50 (hNMUR1; human NMUR1) [µM] | IC50 (rat NMUR2; functional data, rat R2) [µM] | % Activity (rat NMUR2; functional, rat R2, relative to native hNMU responses) [%] | % Activity (hNMUR2; functional, human R2, relative to native hNMU responses) [%] | IC50 (rat NMUR1-ATG; functional data, rat R1-ATG) [µM] | % Activity (rat NMUR1-ATG; functional, rat R1-ATG, relative to native hNMU responses) [%] | IC50 (mouse NMUR2; functional data, mouse R2) [µM] | % Activity (mouse NMUR2; functional, mouse R2, relative to native hNMU responses) [%] | % Activity (hNMUR1; functional, human R1, relative to native hNMU responses) [%]
CCN1C(=O)CC(SC[C@H](NC(C)=O)C(=O)NCCCOCCOCCOCCCNC(=O)CCC(=O)N[C@@H](Cc2ccccc2)C(=O)N[C@@H](CC(C)C)C(=O)N[C@@H](Cc2ccccc2)C(=O)N[C@@H](CCCNC(=N)N)C(=O)N2CCC[C@H]2C(=O)N[C@@H](CCCNC(=N)N)C(=O)N[C@@H](CC(N)=O)C(N)=O)C1=O (some centres unmarked) [NMU15, Ac-C1-Ttds-FLFRPRN-CONH2] ({X2-Suc}-FLFRPRN-NH2) | 0.0022 | 100 | 101 | 100 | 100 | 91.5 | – | – | – | – | – | – | – | – | – | – | – | –
CC(C)C[C@@H](NC(=O)[C@H](Cc1ccccc1)NC(=O)[C@H](Cc1ccc(O)cc1)NC(=O)CNC(=O)[C@H](CCCNC(=N)N)NC(=O)[C@H](CO)NC(=O)[C@H](CCC(N)=O)NC(=O)[C@H](CO)NC(=O)[C@H](C)NC(=O)[C@H](Cc1ccccc1)NC(=O)[C@@H]1CCCN1C(=O)[C@H](CO)NC(=O)[C@H](CCC(N)=O)NC(=O)[C@H](Cc1ccccc1)NC(=O)[C@H](CCC(=O)O)NC(=O)[C@H](CCC(=O)O)NC(=O)[C@H](CC(=O)O)NC(=O)[C@@H](NC(=O)[C@H](CCCNC(=N)N)NC(=O)[C@@H](N)Cc1ccccc1)C(C)C)C(=O)N[C@@H](Cc1c[nH]c2ccccc12)C(=O)N[C@@H](CCCNC(=N)N)C(=O)N1CCC[C@H]1C(=O)N[C@@H](CCCNC(=N)N)C(=O)N[C@@H](CC(N)=O)C(N)=O [Agonist H] (H-FRVDEEFQSPFASQSRGYF[dL]WRPRN-NH2; N-terminus assumed) | – | – | – | – | – | – | – | – | – | – | > 1 | 42 | 0 | 0.0311 | 95 | > 1 | 40 | 90
CCN1C(=O)CC(SC[C@H](NC(C)=O)C(=O)N[C@@H](Cc2ccccc2)C(=O)N[C@@H](CCCNC(=N)N)C(=O)N[C@H](C(=O)N[C@@H](CC(=O)O)C(=O)N[C@@H](CCC(=O)O)C(=O)N[C@@H](CCC(=O)O)C(=O)N[C@@H](Cc2ccccc2)C(=O)N[C@@H](CCC(N)=O)C(=O)N[C@@H](CO)C(=O)N2CCC[C@H]2C(=O)N[C@@H](Cc2ccccc2)C(=O)N[C@@H](C)C(=O)N[C@@H](CO)C(=O)N[C@@H](CCC(N)=O)C(=O)N[C@@H](CO)C(=O)N[C@@H](CCCNC(=N)N)C(=O)NCC(=O)N[C@@H](Cc2ccc(O)cc2)C(=O)N[C@@H](Cc2ccccc2)C(=O)N[C@@H](CC(C)C)C(=O)N[C@@H](Cc2ccccc2)C(=O)N[C@@H](CCCNC(=N)N)C(=O)N2CCC[C@H]2C(=O)N[C@@H](CCCNC(=N)N)C(=O)N[C@@H](CC(N)=O)C(N)=O)C(C)C)C1=O (some centres unmarked) [NMU8] (Ac-C(Succinimide(1-Et,3-yl))FRVDEEFQSPFASQSRGYFLFRPRN-NH2) | – | 94.7 | 100 | 97.2 | 100 | 99.1 | – | – | – | – | – | – | – | – | – | – | – | –
CC(=O)N[C@@H](CSCC(=O)O[C@H]1CC[C@@]2(C)C(=CC[C@H]3[C@@H]4CC[C@H]([C@H](C)CCCC(C)C)[C@@]4(C)CC[C@@H]32)C1)C(=O)NCC(=O)N[C@@H](Cc1ccc(O)cc1)C(=O)N[C@@H](Cc1ccccc1)C(=O)N[C@@H](CC(C)C)C(=O)N[C@@H](Cc1ccccc1)C(=O)N[C@@H](CCCNC(=N)N)C(=O)N1CCC[C@H]1C(=O)N[C@@H](CCCNC(=N)N)C(=O)N[C@@H](CC(N)=O)C(N)=O [NMU11] (Ac-C(X1)GYFLFRPRN-NH2) | – | 33.2 | 37.3 | 50.9 | 70.5 | 20.6 | – | – | – | – | – | – | – | – | – | – | – | –

The next lines start with results.

EC50 (rat NMUR2; rat NMUR2) [µM] | % Activity (rat NMUR2; [1]) [%] | % Activity (hNMUR2; [2]) [%] | % Activity (rat NMUR1-ATG; [3]) [%] | % Activity (mouse NMUR2; [4]) [%] | % Activity (hNMUR1; [5]) [%] | EC50 (hNMUR2; human NMUR2) [µM] | EC50 (rat NMUR1-ATG; rat NMUR1-ATG) [µM] | EC50 (mouse NMUR2; mouse NMUR2) [µM] | EC50 (hNMUR1; human NMUR1) [µM] | Compound | IC50 (rat NMUR2; functional data, rat R2) [µM] | % Activity (rat NMUR2; functional, rat R2, relative to native hNMU responses) [%] | % Activity (hNMUR2; functional, human R2, relative to native hNMU responses) [%] | IC50 (rat NMUR1-ATG; functional data, rat R1-ATG) [µM] | % Activity (rat NMUR1-ATG; functional, rat R1-ATG, relative to native hNMU responses) [%] | IC50 (mouse NMUR2; functional data, mouse R2) [µM] | % Activity (mouse NMUR2; functional, mouse R2, relative to native hNMU responses) [%] | % Activity (hNMUR1; functional, human R1, relative to native hNMU responses) [%]
0.0169 | – | – | – | – | – | 0.013 | 0.0072 | 0.0148 | 0.0164 | Ac-C2FQSPFASQSRGYFLFRPRN-CONH2 ({Ac-C(PEG 40 kDa)}-FQSPFASQSRGYFLFRPRN-NH2; not fully specified; printed as Ac-C2FQSPFASQSRGYFLFRPRN-CONH2) [NMU20, C2 = Cys(PEG)240 kDa] | – | – | – | – | – | – | – | –
0.0378 | 96.4 | 98.8 | 99.6 | – | 83.0 | 0.0441 | 0.0201 | 0.0188 | 0.168 | Pam-C2FRVDEEFQSPFASQSRGYFLFRPRN-CONH2 ({Palmitoyl-C(PEG 40 kDa)}-FRVDEEFQSPFASQSRGYFLFRPRN-NH2) [NMU25, Pam = palmitoyl; C2 = Cys(PEG)240 kDa] | – | – | – | – | – | – | – | –

Source: US20100075907A1, “NEUROMEDIN U RECEPTOR AGONISTS AND USES THEREOF” (priority 2006, published 2010)
